Laboratory results published in patent US6958346B2, “4-heteroaryl-tetrahydroquinolines and their use as inhibitors of the cholesterin-ester transfer protein” (Bayer Aktiengesellschaft, priority 1997, dated 2005).
pIC50: −log10 of the molar value.

Columns and labels:
[1] = target: T1, cholesterol ester transfer protein (CETP) (Homo sapiens, UniProt P11597); assay: CETP inhibition test (transfer of 3H-cholesterol ester from human HDL to biotinylated LDL, SPA); format: biochemical; details: CETP partially purified from human plasma; 37° C., 18 h; concentration at which transfer is reduced by half
T1 construct: CETP is obtained in partially purified form from human plasma by differential centrifugation and column chromatography; from tissue; host or cells: human plasma
T1 sequence (P11597 18-493): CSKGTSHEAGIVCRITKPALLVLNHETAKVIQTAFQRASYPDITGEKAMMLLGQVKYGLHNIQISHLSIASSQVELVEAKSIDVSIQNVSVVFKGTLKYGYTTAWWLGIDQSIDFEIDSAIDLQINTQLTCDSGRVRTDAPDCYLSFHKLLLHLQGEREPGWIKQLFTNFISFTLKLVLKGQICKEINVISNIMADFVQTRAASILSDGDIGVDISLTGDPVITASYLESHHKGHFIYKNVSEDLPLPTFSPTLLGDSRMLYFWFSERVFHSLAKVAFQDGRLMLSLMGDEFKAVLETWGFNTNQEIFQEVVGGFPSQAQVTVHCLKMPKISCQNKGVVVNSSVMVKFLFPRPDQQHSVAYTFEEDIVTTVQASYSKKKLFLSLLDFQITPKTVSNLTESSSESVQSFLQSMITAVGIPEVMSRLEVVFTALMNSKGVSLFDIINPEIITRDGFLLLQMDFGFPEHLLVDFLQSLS
Method: CETP is obtained in partially purified form from human plasma by differential centrifugation and column chromatography and used for the test. For this purpose, human plasma is adjusted to a density of 1.21 g per ml using NaBr and centrifuged at 50,000 rpm at 4° C. for 18 h. The bottom fraction (d>1.21 g/ml) is applied to a Sephadex®Phenyl-Sepharose 4B (Pharmacia) column, washed with 0.15 m NaCl/0.001 m TrisHCl pH 7.4 and subsequently eluted using dist. water. The CETP-active fractions are pooled, dialysed against 50 mM Na-acetate pH 4.5 and applied to a CM-Sepharose® (Pharmacia) column. Elution is subsequently carried out using a linear gradient (0-1 M NaCl). The pooled CETP fractions are dialysed against 10 mM TrisHCl pH 7.4 and subsequently purified further by chromatography over a Mono Q® column (Pharmacia).
50 ml of fresh human EDTA plasma are adjusted to a density of 1.12 using NaBr and centrifuged at 4° C. in a Ty 65 rotor at 50,000 rpm for 18 h. The upper phase is used to obtain cold LDL. […]
To test the CETP activity, the transfer of ^3H-cholesterol ester from human HD-lipoproteins to biotinylated LD-lipoproteins is measured.
The reaction is terminated by addition of Streptavidin-SPA® beads (Amersham) and the transferred radioactivity is directly determined in a liquid scintillation counter. […]

pIC50 [1]	melting point [°C]	SMILES
8.00	–	CC1(C)CC(=O)c2c(nc(C3CCCC3)c(C(=O)c3ccc(C(F)(F)F)cc3)c2-c2ccsc2)C1 [Example 1, 2-Cyclopentyl-7,7-dimethyl-4-(3-thienyl)-3-(4-trifluoromethylbenzoyl)-5,6,7,8-tetrahydro-quinolin-5-one]
–	221 to 224	CC1(C)CC(=O)c2c(nc(C3CCCC3)c(C(=O)c3ccc(C(F)(F)F)cc3)c2-c2ccncc2)C1 [Example 2]
–	185 to 186	CC1(C)CC(=O)c2c(nc(C3CCCC3)c(C(=O)c3ccc(C(F)(F)F)cc3)c2C2CCCCC2)C1 [Example 3]
